{"source": "patent US7445892B2", "about": "“Method of testing anticancer agent-sensitivity of tumor cells” (Eisai Co., Ltd., priority 2000, dated 2008)", "assay_type_in_all_cases": "cell-based, human", "key": {"[1]": {"system": "HCT116-C9", "assay": "Cell growth inhibition by the MTT method", "conditions": "HCT116-C9, 72 hours culture, FIG. 1", "procedure": "(§1) The used cell strains HCT116-C9, HCT116-C9-C1, LX-1 and LX-1-E2 were cultured for 72 hours with addition of E7070. The actual operation was performed by using CellTiter 96 Non-Radioactive Cell Proliferation Assay (Promega, Madison, Wis.) according to the attached operation manual."}, "[2]": {"system": "LX-1-E2", "assay": "Cell growth inhibition by the MTT method", "conditions": "resistant strain LX-1-E2, drug concentration 8 μM, 72 hours culture", "procedure": "as §1"}, "[3]": {"system": "HCT116-C9", "assay": "Gene expression analysis by quantitative PCR", "conditions": "susceptible strain HCT116-C9, 8 μM, 0-12 hours, FIG. 2", "procedure": "(§2) E7070, or ER-35748 or ER-68487 represented by the structural formula shown below was added to the media of an E7070-susceptible strain HCT116-C9 and an E7070-resistant strain HCT116-C9-C1 at a concentration of 8 μM and the cells were cultured. Then, cells were recovered after 0, 3, 6 and 12 hours. Further, the cells were also cultured for 12 hours without adding the drug and recovered. In order to confirm that variations in gene expression obtained in Example 2 reflected the susceptibility of a tumor cell to E7070, changes of gene expression in E7070-susceptible cells and E7070-resistant cells were examined by quantitative PCR using RNA shown in Example 1, SYBR Green and ABI Prism 7700 Sequence Detection System (Perkin-Elmer Applied Biosystems). The operation was performed in two steps of a reverse transcription reaction and PCR reaction. […] The mRNA level in each specimen was quantified by measuring fluorescence intensity. In comparison of two or more specimens, quantitative values were corrected based on the mRNA level of GAPDH in each specimen. The relationships between the drug treatment time and each mRNA level are shown in FIGS. 2 to 5, where the quantified value at 0 hour after the drug treatment was used as a control (100%)."}, "[4]": {"system": "HCT116-C9-C1", "assay": "Gene expression analysis by quantitative PCR", "conditions": "resistant strain HCT116-C9-C1, 8 μM, 0-12 hours, FIG. 4", "procedure": "as §2"}, "[5]": {"system": "HCT116-C9-C1", "assay": "Gene expression analysis using GeneChip in E7070-resistant strain C9-C1", "conditions": "resistant strain C9-C1, 8 μM, 12 hours", "procedure": "E7070, or ER-35748 or ER-68487 represented by the structural formula shown below was added to the media of an E7070-susceptible strain HCT116-C9 and an E7070-resistant strain HCT116-C9-C1 at a concentration of 8 μM and the cells were cultured. Then, cells were recovered after 0, 3, 6 and 12 hours. Further, the cells were also cultured for 12 hours without adding the drug and recovered. Total RNA was extracted from these cells and subjected to the subsequent analyses. […] The stained GeneChip was scanned by using HP Argon Ion Laser Confocal Scanner (Hewlett Packard) to measure its fluorescence intensity. The fluorescence was measured at 570 nm by using an excitation light at 488 nm. The quantitative data analyses were all conducted by using GeneChip Software (Affymetrix). To quantify RNA, an average of “differences [(Perfect match hybridization signal)−(Mismatch signal)]” was obtained for each probe family. […] Two kinds of E7070-resistant strains (C9-C1 and another resistant strain (C9-C4) obtained in the same method as C9-C1) were treated with 8 μM of E7070 for 12 hours in the same manner as described above, and variations of the gene expression were analyzed by using GeneChip for the genes listed in Tables 1 and 2."}}, "data": [{"smiles": "NS(=O)(=O)c1ccc(S(=O)(=O)Nc2cccc3c(Cl)c[nH]c23)cc1", "note": "[E7070, N-(3-chloro-7-indolyl)-1,4-benzenedisulfonamide]", "values": [{"measurement": "susceptibility (cell growth inhibition)", "setting": "[1]", "value": "highest susceptibility"}, {"measurement": "growth inhibitory effect", "setting": "[2]", "value": "some growth inhibitory effect"}, {"measurement": "mRNA level variation of S80343, U07919, U11791, M95809, U18291, U63743, M61764 (corrected by GAPDH)", "setting": "[3]", "value": "largest expression variation"}, {"measurement": "mRNA level variation of S80343, U07919, U11791, M95809, U18291, U63743, M61764 (corrected by GAPDH)", "setting": "[4]", "value": "no expression variation was observed"}, {"measurement": "variations of the gene expression for the genes listed in Tables 1 and 2", "setting": "[5]", "value": "no gene that increased or decreased 1.8 times or more was observed"}]}]}
